Legend:
Type in all cases: cell-based
CCRF-CEM = assay: NCI 60 cell line screen (SRB), Leukemia
K-562 = assay: NCI 60 cell line screen (SRB), Leukemia; conditions: K-562 (Leukemia)
A549/ATCC = assay: NCI 60 cell line screen (SRB), Non-Small Cell Lung Cancer
HOP-62 = assay: as above; conditions: HOP-62 (Non-Small Cell Lung Cancer)
HOP-92 = assay: as above; conditions: HOP-92 (Non-Small Cell Lung Cancer)
NCI-H226 = assay: as above
NCI-H322M = assay: as above
NCI-H460 = assay: as above
HCC-2998 = assay: NCI 60 cell line screen (SRB), Colon Cancer; conditions: HCC-2998 (Colon Cancer)
HCT-15 = assay: NCI 60 cell line screen (SRB), Colon Cancer; conditions: HCT-15 (Colon Cancer)
HT29 = assay: NCI 60 cell line screen (SRB), Colon Cancer
SW-620 = assay: NCI 60 cell line screen (SRB), Colon Cancer; conditions: SW-620 (Colon Cancer)
SF-268 = assay: NCI 60 cell line screen (SRB), CNS Cancer; conditions: SF-268 (CNS Cancer)
SF-539 = assay: NCI 60 cell line screen (SRB), CNS Cancer; conditions: SF-539 (CNS Cancer)
SNB-19 = assay: NCI 60 cell line screen (SRB), CNS Cancer; conditions: SNB-19 (CNS Cancer)
MALME-3M = assay: NCI 60 cell line screen (SRB), Melanoma; conditions: MALME-3M (Melanoma)
M14 = assay: NCI 60 cell line screen (SRB), Melanoma
SK-MEL-2 = assay: NCI 60 cell line screen (SRB), Melanoma; conditions: SK-MEL-2 (Melanoma)
SK-MEL-28 = assay: NCI 60 cell line screen (SRB), Melanoma; conditions: SK-MEL-28 (Melanoma)
SK-MEL-5 = assay: NCI 60 cell line screen (SRB), Melanoma; conditions: SK-MEL-5 (Melanoma)
UACC-62 = assay: NCI 60 cell line screen (SRB), Melanoma; conditions: UACC-62 (Melanoma)
IGROVI = assay: NCI 60 cell line screen (SRB), Ovarian Cancer
OVCAR-3 = assay: NCI 60 cell line screen (SRB), Ovarian Cancer; conditions: OVCAR-3 (Ovarian Cancer)
OVCAR-4 = assay: NCI 60 cell line screen (SRB), Ovarian Cancer; conditions: OVCAR-4 (Ovarian Cancer)
OVCAR-8 = assay: NCI 60 cell line screen (SRB), Ovarian Cancer; conditions: OVCAR-8 (Ovarian Cancer)
786-0 = assay: NCI 60 cell line screen (SRB), Renal Cancer; conditions: 786-0 (Renal Cancer)
A498 = assay: NCI 60 cell line screen (SRB), Renal Cancer
CAKI-1 = assay: NCI 60 cell line screen (SRB), Renal Cancer; conditions: CAKI-1 (Renal Cancer)
MCF7 = assay: NCI 60 cell line screen (SRB), Breast Cancer
MCF7/ADR-RES = assay: NCI 60 cell line screen (SRB), Breast Cancer
HS 578T = assay: NCI 60 cell line screen (SRB), Breast Cancer; conditions: HS 578T (Breast Cancer)
MDA-N = assay: NCI 60 cell line screen (SRB), Breast Cancer
60 cell line panel = assay: NCI 60 cell line screen, values over the whole panel; conditions: mean value over the cell line panel

Compound: COC1OC2(C)CCC3CCCC(CCOC(=O)c4ccc(C(=O)OCCC5CCCC6CCC7(C)OOC56C(OC)O7)cc4)C31OO2 (stereo not shown) [Compound 11, Bis-ester Dimer]
- Log10GI50 (CCRF-CEM): −6.57 M
- Log10LC50 (CCRF-CEM): −4.05 M
- Log10TGI (CCRF-CEM): −4.89 M
- Log10GI50 (K-562): −6.57 M
- Log10LC50 (K-562): >−4.00 M
- Log10TGI (K-562): >−4.00 M
- Log10GI50 (A549/ATCC): −5.42 M
- Log10LC50 (A549/ATCC): >−4.00 M
- Log10TGI (A549/ATCC): >−4.00 M
- Log10GI50 (HOP-62): −5.01 M
- Log10LC50 (HOP-62): >−4.00 M
- Log10TGI (HOP-62): >−4.00 M
- Log10GI50 (HOP-92): −4.91 M
- Log10LC50 (HOP-92): >−4.00 M
- Log10TGI (HOP-92): >−4.00 M
- Log10GI50 (NCI-H226): −5.26 M
- Log10LC50 (NCI-H226): >−4.00 M
- Log10TGI (NCI-H226): >−4.00 M
- Log10GI50 (NCI-H322M): −4.69 M
- Log10LC50 (NCI-H322M): >−4.00 M
- Log10TGI (NCI-H322M): >−4.00 M
- Log10GI50 (NCI-H460): −6.02 M
- Log10LC50 (NCI-H460): >−4.00 M
- Log10TGI (NCI-H460): >−4.00 M
- Log10GI50 (HCC-2998): −4.56 M
- Log10LC50 (HCC-2998): >−4.00 M
- Log10TGI (HCC-2998): >−4.00 M
- Log10GI50 (HCT-15): −6.12 M
- Log10LC50 (HCT-15): >−4.00 M
- Log10TGI (HCT-15): >−4.00 M
- Log10GI50 (HT29): −5.90 M
- Log10LC50 (HT29): >−4.00 M
- Log10TGI (HT29): >−4.00 M
- Log10GI50 (SW-620): −6.12 M
- Log10LC50 (SW-620): >−4.00 M
- Log10TGI (SW-620): >−4.00 M
- Log10GI50 (SF-268): −5.14 M
- Log10LC50 (SF-268): >−4.00 M
- Log10TGI (SF-268): >−4.00 M
- Log10LC50 (SF-539): >−4.00 M
- Log10GI50 (SNB-19): −5.31 M
- Log10LC50 (SNB-19): >−4.00 M
- Log10TGI (SNB-19): >−4.00 M
- Log10GI50 (MALME-3M): −5.03 M
- Log10LC50 (MALME-3M): >−4.00 M
- Log10TGI (MALME-3M): >−4.00 M
- Log10GI50 (M14): −5.20 M
- Log10LC50 (M14): >−4.00 M
- Log10TGI (M14): >−4.00 M
- Log10GI50 (SK-MEL-2): −5.47 M
- Log10LC50 (SK-MEL-2): >−4.00 M
- Log10TGI (SK-MEL-2): −5.04 M
- Log10GI50 (SK-MEL-28): −4.31 M
- Log10LC50 (SK-MEL-28): >−4.00 M
- Log10TGI (SK-MEL-28): >−4.00 M
- Log10GI50 (SK-MEL-5): −6.00 M
- Log10LC50 (SK-MEL-5): >−4.00 M
- Log10TGI (SK-MEL-5): >−4.00 M
- Log10GI50 (UACC-62): −5.87 M
- Log10LC50 (UACC-62): >−4.00 M
- Log10TGI (UACC-62): >−4.00 M
- Log10GI50 (IGROVI): −4.95 M
- Log10LC50 (IGROVI): >−4.00 M
- Log10TGI (IGROVI): >−4.00 M
- Log10GI50 (OVCAR-3): −5.63 M
- Log10LC50 (OVCAR-3): >−4.00 M
- Log10TGI (OVCAR-3): >−4.00 M
- Log10GI50 (OVCAR-4): −5.26 M
- Log10LC50 (OVCAR-4): >−4.00 M
- Log10TGI (OVCAR-4): >−4.00 M
- Log10GI50 (OVCAR-8): −6.03 M
- Log10LC50 (OVCAR-8): >−4.00 M
- Log10TGI (OVCAR-8): >−4.00 M
- Log10GI50 (786-0): −5.41 M
- Log10LC50 (786-0): >−4.00 M
- Log10TGI (786-0): >−4.00 M
- Log10GI50 (A498): >−4.00 M
- Log10LC50 (A498): >−4.00 M
- Log10TGI (A498): >−4.00 M
- Log10GI50 (CAKI-1): −4.99 M
- Log10LC50 (CAKI-1): >−4.00 M
- Log10TGI (CAKI-1): >−4.00 M
- Log10GI50 (MCF7): −5.86 M
- Log10LC50 (MCF7): >−4.00 M
- Log10TGI (MCF7): >−4.00 M
- Log10GI50 (MCF7/ADR-RES): −5.11 M
- Log10LC50 (MCF7/ADR-RES): >−4.00 M
- Log10TGI (MCF7/ADR-RES): >−4.00 M
- Log10GI50 (HS 578T): −4.55 M
- Log10LC50 (HS 578T): >−4.00 M
- Log10TGI (HS 578T): >−4.00 M
- Log10GI50 (MDA-N): −5.56 M
- Log10LC50 (MDA-N): >−4.00 M
- Log10TGI (MDA-N): >−4.00 M
- Log10GI50 MG MID (60 cell line panel): −5.59 M
- Log10LC50 MG MID (60 cell line panel): −4.04 M
- Log10TGI MG MID (60 cell line panel): −4.19 M

Source: patent USRE38117E1, “Trioxane dimer compound having antiproliferative and antitumor activities” (Hauser, Inc., priority 1995, dated 2003)
